Results from US6242611A, “Phenylimidazolidines containing nitrooxy or carbonyloxy groups” (Hoechst Marion Roussel, priority 1995, dated 2001).

How the values were obtained:
Androgen Receptor = biological target: T1, Androgen Receptor (Rattus norvegicus, UniProt P15207); assay: Affinity for the androgen receptor (relative bond affinity, tritiated testosterone displacement, rat prostate cytosol); assay type: binding, Male Sprague Dawley EOPS rats
T1 construct: the prostates are removed, weighed and homogenized at 0° C; from tissue; host or cells: prostate cytosol of castrated male Sprague Dawley rats
T1 sequence (P15207 1-902): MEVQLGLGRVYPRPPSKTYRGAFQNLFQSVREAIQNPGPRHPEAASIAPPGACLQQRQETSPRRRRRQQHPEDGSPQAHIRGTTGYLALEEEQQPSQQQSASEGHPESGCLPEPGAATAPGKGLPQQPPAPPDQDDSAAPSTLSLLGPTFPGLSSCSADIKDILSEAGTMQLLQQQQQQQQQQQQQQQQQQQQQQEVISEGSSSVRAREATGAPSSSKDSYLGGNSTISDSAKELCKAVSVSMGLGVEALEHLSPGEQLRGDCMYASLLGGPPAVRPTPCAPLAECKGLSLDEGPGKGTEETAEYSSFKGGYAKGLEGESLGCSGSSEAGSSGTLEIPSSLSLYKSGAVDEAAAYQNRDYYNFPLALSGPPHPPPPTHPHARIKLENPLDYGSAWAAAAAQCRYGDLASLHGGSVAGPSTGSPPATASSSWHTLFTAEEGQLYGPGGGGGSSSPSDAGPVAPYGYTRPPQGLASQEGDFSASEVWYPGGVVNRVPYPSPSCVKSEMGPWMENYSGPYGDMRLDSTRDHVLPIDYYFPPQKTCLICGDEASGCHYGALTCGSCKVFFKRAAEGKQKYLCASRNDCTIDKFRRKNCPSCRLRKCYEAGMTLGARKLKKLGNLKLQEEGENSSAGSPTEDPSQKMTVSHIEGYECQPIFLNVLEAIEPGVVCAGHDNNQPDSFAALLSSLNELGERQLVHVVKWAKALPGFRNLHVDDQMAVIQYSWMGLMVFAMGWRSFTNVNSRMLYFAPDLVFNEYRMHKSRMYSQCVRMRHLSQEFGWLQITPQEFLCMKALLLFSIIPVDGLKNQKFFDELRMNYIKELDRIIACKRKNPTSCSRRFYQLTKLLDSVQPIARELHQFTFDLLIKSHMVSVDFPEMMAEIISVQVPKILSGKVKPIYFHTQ
Protocol: The homogenate is then ultracentrifuged at 0° C., for 30 minutes at 209,000 g.

[1] = tested on: Costo-vertebral Gland of the Hamster; assay: Reducing effect on the costo-vertebral gland of the hamster (local topical antiandrogen activity); assay type: in vivo, male hamsters (Charles River breed); details: 3 weeks (14 administrations), surface area of C.V.G., male hamsters, compared to animals treated with solvent only
Protocol: The local activity (topical) of an antiandrogen is determined by the reduction which it produces in the surface area of the costovertebral gland of the hamster (hereafter C.V.G.), an androgen-dependent organ situated on the sides of the animal.
The animals are male hamsters weighing approximately 140 g, 14 weeks old and originating from the Charles Riverbreed (USA), they are subjected to a long photoperiod (16 hours of light, 8 hours of darkness). The animals are treated every day, except for the weekend, for 3 weeks (14 administrations). The product to be tested is applied, by topical route, to the right-hand G.C.V., the left-hand one serving as the control, the surface of the gland having been shaved beforehand. The animals are sacrificed by bleeding the carotid artery 24 hours after the last treatment. The C.V.G.'s are removed, measured and weighed. The local activity of a product is determined by the % reduction in the surface area of the C.V.G. which it induces in comparison with the 1st of day the experiment and compared to the animals treated with solvent only.

[2] = tested on: Prostate in an Intact Male Rat; assay: Reducing effect in the weight of the prostate in an intact male rat (systemic antiandrogen activity); assay type: in vivo, male rats of the Sprague Dawley strain; details: day 0 to day 4 then day 7 to day 10, intact male rats, compared to animals treated with solvent only
Protocol: The experiment is carried out over two weeks, except for the weekend.
The product can be administered by oral, sub-cutaneous or percutaneous route.
The treatment is carried out from day 0 to day 4 then (after the weekend) from day 7 to day 10. The animals are sacrificed the day after the last treatment by bleeding the carotid artery, the prostates are removed and fixed in demineralized water containing 10% formol for 72 hours. They are then dissected and weighed.

CC(C)OC(=O)OCCCCN1C(=O)N(c2ccc(C#N)c(C(F)(F)F)c2)C(=O)C1(C)C [Example 1, 4-(3-(4-cyano-3-(trifluoromethyl)-phenyl)-5,5-dimethyl-2,4-dioxo-1-imidazolidinyl)butyl and 1-methylethyl carbonate]
RBA: Incubation for 24 hours (Androgen Receptor): 19
% CVG reduction with 3 μg/jour [1]: -32%
% reduction in the prostate weight with 3 mg/kg P.O. [2]: -5%
